Measured values published in the NIST ThermoML archive (doi:10.1016/j.jct.2012.11.004).

Assay: mn = molality of the nth substance listed, in mol/kg
Conditions: 101 kPa, Liquid; for mass density: Vibrating tube method; for speed of sound: Pulse-echo method

O=S(=O)([O-])C(F)(F)F.[Na+] [sodium trifluoromethanesulfonate] + CC(=O)N(C)C
Conditions | mass density, 283.15 K [kg/m3] | mass density, 293.15 K [kg/m3] | mass density, 298.15 K [kg/m3] | mass density, 303.15 K [kg/m3] | mass density, 313.15 K [kg/m3] | mass density, 323.15 K [kg/m3] | mass density, 333.15 K [kg/m3] | speed of sound, 298.15 K [m/s]
m1 = 0.03102 | 953.06 | 943.85 | 939.25 | 934.64 | 925.39 | 916.13 | 906.83 | –
m1 = 0.04251 | 954.18 | 944.96 | 940.36 | 935.76 | 926.52 | 917.26 | 907.96 | –
m1 = 0.05604 | 955.5 | 946.28 | 941.68 | 937.08 | 927.84 | 918.59 | 909.29 | 1456
m1 = 0.07266 | 957.11 | 947.9 | 943.3 | 938.69 | 929.46 | 920.21 | 910.92 | 1455.8
m1 = 0.08844 | 958.64 | 949.43 | 944.83 | 940.23 | 931 | 921.75 | 912.46 | 1455.7
m1 = 0.1113 | 960.86 | 951.66 | 947.06 | 942.45 | 933.22 | 923.98 | 914.7 | 1455.5
m1 = 0.1446 | 964.1 | 954.89 | 950.29 | 945.68 | 936.46 | 927.21 | 917.94 | 1455.2
m1 = 0.174 | 966.97 | 957.75 | 953.15 | 948.54 | 939.35 | 930.09 | 920.85 | 1455
m1 = 0.2018 | 969.69 | 960.49 | 955.89 | 951.28 | 942.06 | 932.83 | 923.57 | 1454.7
m1 = 0.2378 | 973.2 | 964 | 959.39 | 954.79 | 945.58 | 936.36 | 927.11 | 1454.3
m1 = 0.2675 | 976.18 | 966.97 | 962.37 | 957.77 | 948.55 | 939.32 | 930.07 | 1453.9

O=S(=O)([O-])C(F)(F)F.O=S(=O)([O-])C(F)(F)F.O=S(=O)([O-])C(F)(F)F.[Lu+3] [lutetium(III) trifluoromethanesulfonate] + CC(=O)N(C)C
Conditions | mass density, 283.15 K [kg/m3] | mass density, 293.15 K [kg/m3] | mass density, 298.15 K [kg/m3] | mass density, 303.15 K [kg/m3] | mass density, 313.15 K [kg/m3] | mass density, 323.15 K [kg/m3] | mass density, 333.15 K [kg/m3] | speed of sound, 298.15 K [m/s]
m1 = 0.02294 | 960.37 | 951.15 | 946.53 | 941.91 | 932.67 | 923.39 | 914.07 | 1455.7
m1 = 0.03057 | 963.84 | 954.61 | 950 | 945.38 | 936.11 | 926.83 | 917.5 | 1455.4
m1 = 0.0402 | 968.22 | 958.99 | 954.37 | 949.75 | 940.48 | 931.19 | 921.86 | 1455
m1 = 0.05161 | 973.43 | 964.19 | 959.57 | 954.95 | 945.68 | 936.38 | 927.05 | 1454.7
m1 = 0.06304 | 978.74 | 969.5 | 964.89 | 960.24 | 950.96 | 941.65 | 932.31 | 1454.3
m1 = 0.07962 | 986.46 | 977.21 | 972.58 | 967.95 | 958.66 | 949.34 | 939.99 | 1453.7
m1 = 0.1022 | 997.19 | 987.92 | 983.29 | 978.65 | 969.35 | 960.02 | 950.65 | 1452.2
m1 = 0.1222 | 1006.81 | 997.54 | 992.9 | 988.26 | 978.94 | 969.59 | 960.2 | 1451.5
m1 = 0.1412 | 1016.12 | 1006.84 | 1002.2 | 997.55 | 988.22 | 978.86 | 969.47 | 1450.5
m1 = 0.1647 | 1027.86 | 1018.56 | 1013.91 | 1009.26 | 999.92 | 990.55 | 981.13 | 1449
m1 = 0.1843 | 1037.79 | 1028.48 | 1023.83 | 1019.21 | 1009.81 | 1000.43 | 991.01 | 1448.3
